Measurements as given in US12037583B2, “Compositions and methods for immunooncology” (Novartis AG, priority 2015, dated 2024).
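Also: dgRNA lipofected into Cas9-expressing HEK cells, lysed after 24 h, target amplicon sequenced, editing = reads carrying insertions or deletions as percent of all reads including wild type.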

The substances below were run on PDCD1 (assay: NGS editing of PDCD1 by dgRNA in HEK cells stably expressing Cas9). Details: at least 3 experiments.
Format: cell-based, human
Excerpt: Transfection of Cas9GFP-expressing HEK293 cells (HEK-293_Cas9GFP) was used for primary screening of target specific crRNAs. […] Selected crRNAs were chemically synthesized and delivered in a 96 well format. HEK-293-Cas9GFP cells were transfected with target crRNAs comprising a flagpole region of SEQ ID NO: 6607 in a 1:1 ratio with stock trRNA of SEQ ID NO: 6660. The transfection was mediated using lipofection technology according to manufacturer's protocol (DharmaFECT Duo, GE LifeSciences; or RNAiMax, LifeTechnologies). Transfected cells were lysed 24 h following lipofection and editing (e.g., cleavage) was detected within lysates with the T7E1 assay and/or next generation sequencing (NGS; below).
PCR primers were first designed around the target site, and the genomic area of interest PCR amplified. Additional PCR was performed according to manufacturer's protocols (Illumina) to add the necessary chemistry for sequencing. The amplicons were then sequenced on an Illumina MiSeq instrument. The reads were then aligned to the human reference genome (e.g., hg38) after eliminating those having low quality scores. From the resulting files containing the reads mapped to the reference genome (BAM files), reads which overlap the target region of interest were selected and the number of wild type reads versus the number of reads which contain an insertion or deletion was calculated. The editing percentage was then defined as the total number of reads with insertions or deletions over the total number of reads, including wild type. To determine the pattern of insertions and/or deletions that resulted from the edit, the aligned reads with indels were selected and the number of a reads with a given indel were summed.
Editing of CRISPR systems containing dgRNA molecules comprising targeting domains to sequences of PDCD1 were tested for editing in HEK (gRNA delivered to cells stably expressing Cas9) and CD3+ T cells (gRNA and Cas9 delivered as RNP) according to the methods described herein.
All mean editing % are as measured by NGS and are based on at least 3 experiments.
In the case of “CR000875: dgRNA targeting domain to PDCD1 (guide ACUUCCACAUGAGCGUGGUC; targeting domain within dual guide RNA, chemistry not given here, further chemistry not given here; listed as Homo sapiens)”, the “HEK (NGS) % Editing Mean” value is reported as 6%.
For “CR000877: dgRNA targeting domain to PDCD1 (guide GGGCCCUGACCACGCUCAUG; targeting domain within dual guide RNA, chemistry not given here, further chemistry not given here; listed as Homo sapiens)”, the “HEK (NGS) % Editing Mean” value was 5%.
For “CR000878: dgRNA targeting domain to PDCD1 (guide ACAUGAGCGUGGUCAGGGCC; targeting domain within dual guide RNA, chemistry not given here, further chemistry not given here; listed as Homo sapiens)”, the “HEK (NGS) % Editing Mean” value was 1%.
For “CR000879: dgRNA targeting domain to PDCD1 (guide AGGGCCCGGCGCAAUGACAG; targeting domain within dual guide RNA, chemistry not given here, further chemistry not given here; listed as Homo sapiens)”, the “HEK (NGS) % Editing Mean” value was 68%.
In the case of “CR000880: dgRNA targeting domain to PDCD1 (guide GGUGCCGCUGUCAUUGCGCC; targeting domain within dual guide RNA, chemistry not given here, further chemistry not given here; listed as Homo sapiens)”, the “HEK (NGS) % Editing Mean” value is reported as 10%.
In the case of “CR000881: gRNA targeting domain to PDCD1, AGGUGCCGCUGUCAUUGCGC (SEQ ID NO: 5777) (targeting domain within guide RNA, chemistry not given here, further chemistry not given here; listed as Homo sapiens)”, the “HEK (NGS) % Editing Mean” value is reported as 21%.
“CR000882: dgRNA targeting domain to PDCD1 (guide GACAGCGGCACCUACCUCUG; targeting domain within dual guide RNA, chemistry not given here, further chemistry not given here; listed as Homo sapiens)” was tested, and the “HEK (NGS) % Editing Mean” value was 50%.
With “CR000883: dgRNA targeting domain to PDCD1 (guide ACAGCGGCACCUACCUCUGU; targeting domain within dual guide RNA, chemistry not given here, further chemistry not given here; listed as Homo sapiens)” the “HEK (NGS) % Editing Mean” value was 9%.
For “CR000884: dgRNA targeting domain to PDCD1 (guide CCAGGGAGAUGGCCCCACAG; targeting domain within dual guide RNA, chemistry not given here, further chemistry not given here; listed as Homo sapiens)”, the “HEK (NGS) % Editing Mean” value was 59%.
In the case of “CR000885: dgRNA targeting domain to PDCD1 (guide GAUCUGCGCCUUGGGGGCCA; targeting domain within dual guide RNA, chemistry not given here, further chemistry not given here; listed as Homo sapiens)”, the “HEK (NGS) % Editing Mean” value is reported as 10%.
“CR000886: dgRNA targeting domain to PDCD1 (guide UGAUCUGCGCCUUGGGGGCC; targeting domain within dual guide RNA, chemistry not given here, further chemistry not given here; listed as Homo sapiens)” was tested, and the “HEK (NGS) % Editing Mean” value was 2%.
“CR000887: dgRNA targeting domain to PDCD1 (guide CUCUUUGAUCUGCGCCUUGG; targeting domain within dual guide RNA, chemistry not given here, further chemistry not given here; listed as Homo sapiens)” was tested, and the “HEK (NGS) % Editing Mean” value was 46%.
“CR000888: dgRNA targeting domain to PDCD1 (guide UCUCUUUGAUCUGCGCCUUG; targeting domain within dual guide RNA, chemistry not given here, further chemistry not given here; listed as Homo sapiens)” was tested, and the “HEK (NGS) % Editing Mean” value was 4%.
With “CR000889: dgRNA targeting domain to PDCD1 (guide CUCUCUUUGAUCUGCGCCUU; targeting domain within dual guide RNA, chemistry not given here, further chemistry not given here; listed as Homo sapiens)” the “HEK (NGS) % Editing Mean” value was 3%.
In the case of “CR000890: dgRNA targeting domain to PDCD1 (guide GCUCUCUUUGAUCUGCGCCU; targeting domain within dual guide RNA, chemistry not given here, further chemistry not given here; listed as Homo sapiens)”, the “HEK (NGS) % Editing Mean” value is reported as 5%.
With “CR000891: dgRNA targeting domain to PDCD1 (guide CGCAGAUCAAAGAGAGCCUG; targeting domain within dual guide RNA, chemistry not given here, further chemistry not given here; listed as Homo sapiens)” the “HEK (NGS) % Editing Mean” value was 29%.
“CR000892: dgRNA targeting domain to PDCD1 (guide GCAGAUCAAAGAGAGCCUGC; targeting domain within dual guide RNA, chemistry not given here, further chemistry not given here; listed as Homo sapiens)” was tested, and the “HEK (NGS) % Editing Mean” value was 45%.
In the case of “CR000893: dgRNA targeting domain to PDCD1 (guide AGAGCCUGCGGGCAGAGCUC; targeting domain within dual guide RNA, chemistry not given here, further chemistry not given here; listed as Homo sapiens)”, the “HEK (NGS) % Editing Mean” value is reported as 10%.
“CR000894: dgRNA targeting domain to PDCD1 (guide AGGGUUUGGAACUGGCCGGC; targeting domain within dual guide RNA, chemistry not given here, further chemistry not given here; listed as Homo sapiens)” was tested, and the “HEK (NGS) % Editing Mean” value was 19%.
In the case of “CR000895: dgRNA targeting domain to PDCD1 (guide CACCAGGGUUUGGAACUGGC; targeting domain within dual guide RNA, chemistry not given here, further chemistry not given here; listed as Homo sapiens)”, the “HEK (NGS) % Editing Mean” value is reported as 49%.
“CR000896: dgRNA targeting domain to PDCD1 (guide CGGCCAGUUCCAAACCCUGG; targeting domain within dual guide RNA, chemistry not given here, further chemistry not given here; listed as Homo sapiens)” was tested, and the “HEK (NGS) % Editing Mean” value was 42%.
For “CR000897: dgRNA targeting domain to PDCD1 (guide CAACCACCAGGGUUUGGAAC; targeting domain within dual guide RNA, chemistry not given here, further chemistry not given here; listed as Homo sapiens)”, the “HEK (NGS) % Editing Mean” value was 26%.
With “CR000898: dgRNA targeting domain to PDCD1 (guide CAGUUCCAAACCCUGGUGGU; targeting domain within dual guide RNA, chemistry not given here, further chemistry not given here; listed as Homo sapiens)” the “HEK (NGS) % Editing Mean” value was 11%.
In the case of “CR000899: dgRNA targeting domain to PDCD1 (guide CGACACCAACCACCAGGGUU; targeting domain within dual guide RNA, chemistry not given here, further chemistry not given here; listed as Homo sapiens)”, the “HEK (NGS) % Editing Mean” value is reported as 5%.
With “CR000903: dgRNA targeting domain to PDCD1 (guide CGCCCACGACACCAACCACC; targeting domain within dual guide RNA, chemistry not given here, further chemistry not given here; listed as Homo sapiens)” the “HEK (NGS) % Editing Mean” value was 54%.
With “CR000904: dgRNA targeting domain to PDCD1 (guide CUGGUGGUUGGUGUCGUGGG; targeting domain within dual guide RNA, chemistry not given here, further chemistry not given here; listed as Homo sapiens)” the “HEK (NGS) % Editing Mean” value was 70%.
“CR000914: dgRNA targeting domain to PDCD1 (guide CUGCAGGGACAAUAGGAGCC; targeting domain within dual guide RNA, chemistry not given here, further chemistry not given here; listed as Homo sapiens)” was tested, and the “HEK (NGS) % Editing Mean” value was 5%.
For “CR000915: dgRNA targeting domain to PDCD1 (guide ACAAUAGGAGCCAGGCGCAC; targeting domain within dual guide RNA, chemistry not given here, further chemistry not given here; listed as Homo sapiens)”, the “HEK (NGS) % Editing Mean” value was 35%.
For “CR000916: dgRNA targeting domain to PDCD1 (guide CAGGGGCUGGCCGGUGCGCC; targeting domain within dual guide RNA, chemistry not given here, further chemistry not given here; listed as Homo sapiens)”, the “HEK (NGS) % Editing Mean” value was 5%.
For “CR000917: dgRNA targeting domain to PDCD1 (guide AAAAGAGUGAGACUCACCAG; targeting domain within dual guide RNA, chemistry not given here, further chemistry not given here; listed as Homo sapiens)”, the “HEK (NGS) % Editing Mean” value was 43%.
For “CR000918: dgRNA targeting domain to PDCD1 (guide GAAAAGAGUGAGACUCACCA; targeting domain within dual guide RNA, chemistry not given here, further chemistry not given here; listed as Homo sapiens)”, the “HEK (NGS) % Editing Mean” value was 50%.
